Among the test systems are HCT-116 colon; OVCAR-8 ovarian; UACC-62 melanoma; MOLT-4 leukemia; IGROV1 ovarian; SK-OV-3 ovarian; NCI-H460 lung; PC-3 prostate; SN12C renal; MDA-N; 786-0 renal; CAKI-1 renal; MDA-MB-231 breast; OVCAR-5 ovarian; OVCAR-4 ovarian.
Common to all, as to experiment: NCI anticancer screen, dose series, 48 h

Structures are written as SMILES. “And” between values parts separate entries of the source, which are not always exact repeats. Equal values may be shown once.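 Assay format: 96-well plates, 48-hour exposure. GI50 is the concentration that inhibits growth by half. TGI: concentration producing complete growth inhibition.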

As for `O=C1CC(O)c2cscc21` (centres undefined), the TGI with HCT-116 colon, with OVCAR-8 ovarian, in the assay on UACC-62 melanoma, in the assay with MOLT-4 leukemia, with IGROV1 ovarian and in the assay on SK-OV-3 ovarian was greater than 100 µM in each case. Further, the TGI in the assay on NCI-H460 lung, in the assay with PC-3 prostate, in the assay on SN12C renal, with MDA-N, with 786-0 renal and in the assay with CAKI-1 renal was greater than 100 µM in each case. Also, the TGI in the assay with MDA-MB-231 breast, in the assay with OVCAR-5 ovarian and in the assay on OVCAR-4 ovarian was greater than 100 µM throughout.
For `COC(=O)[C@H](Cc1ccccc1)NC(=O)c1ccc(CNC(=O)/C=C/c2csc(-c3ccccc3)n2)cc1`, the TGI was greater than 51.7 µM in the assay on HCT-116 colon; greater than 65.4 µM in the assay with OVCAR-8 ovarian; 31.1 µM in the assay on UACC-62 melanoma; 6.68 µM with MOLT-4 leukemia; greater than 23.2 µM in the assay with IGROV1 ovarian; greater than 65.5 µM with SK-OV-3 ovarian. The TGI in the assay with NCI-H460 lung was 42.6 µM; in the assay with PC-3 prostate, greater than 58.2 µM; in the assay with SN12C renal, 46.2 µM; in the assay with MDA-N, 15.5 µM; with 786-0 renal, 21 µM; in the assay with CAKI-1 renal it was greater than 28.7 µM. Further, the values for the TGI with MDA-MB-231 breast, with OVCAR-5 ovarian and with OVCAR-4 ovarian were 57.7 µM, greater than 100 µM and greater than 71 µM, respectively.
In the case of `O=[N+]([O-])c1cccc2nc3ccccc3c(NCCCCCNc3c4ccccc4nc4cccc([N+](=O)[O-])c34)c12`, the TGI with HCT-116 colon was 0.0346 µM; in the assay on OVCAR-8 ovarian it was 0.348 µM; in the assay with UACC-62 melanoma it was 0.303 µM and 0.307 µM; with MOLT-4 leukemia, 0.244 µM; in the assay on IGROV1 ovarian, 0.506 µM and 1.2 µM; with SK-OV-3 ovarian, 1.25 µM and 1.14 µM. In addition, the TGI was 0.164 µM in the assay with NCI-H460 lung; 0.598 µM in the assay with PC-3 prostate; 0.0777 µM and 0.0827 µM in the assay on SN12C renal; 0.191 µM with MDA-N; 0.0666 µM and 0.0332 µM in the assay on 786-0 renal; 0.278 µM and 0.0712 µM in the assay on CAKI-1 renal. Besides, the TGI with MDA-MB-231 breast was 0.0927 µM; in the assay with OVCAR-5 ovarian, 0.935 µM; in the assay on OVCAR-4 ovarian, 0.738 µM. Besides, the GI50 is 0.0351 µM with UACC-62 melanoma, 0.127 µM in the assay on IGROV1 ovarian, 0.08 µM with SK-OV-3 ovarian and 0.0199 µM with CAKI-1 renal.
Take `Cc1[nH]n(-c2nc3c(c(=O)[nH]2)CCCC3)c(=O)c1CCO`: the TGI in the assay with HCT-116 colon, with OVCAR-8 ovarian, in the assay on UACC-62 melanoma, in the assay on MOLT-4 leukemia, with IGROV1 ovarian and in the assay with SK-OV-3 ovarian was greater than 100 µM in each case. Also, the TGI with NCI-H460 lung, in the assay with PC-3 prostate, in the assay on SN12C renal, with MDA-N, in the assay on 786-0 renal and in the assay on CAKI-1 renal was greater than 100 µM each time. In addition, the TGI in the assay on MDA-MB-231 breast, in the assay with OVCAR-5 ovarian and in the assay on OVCAR-4 ovarian was greater than 100 µM in each case.
Consider `Cc1cc(O)c(/C=N/C(N)=S)c(=O)o1`, for which the TGI in the assay with HCT-116 colon, in the assay with OVCAR-8 ovarian, in the assay on UACC-62 melanoma, in the assay with MOLT-4 leukemia, in the assay with IGROV1 ovarian and with SK-OV-3 ovarian was greater than 100 µM in each case. Moreover, the TGI in the assay with NCI-H460 lung, with PC-3 prostate, with SN12C renal, in the assay on MDA-N, in the assay with 786-0 renal and with CAKI-1 renal was greater than 100 µM each time. The TGI with MDA-MB-231 breast, with OVCAR-5 ovarian and in the assay on OVCAR-4 ovarian was greater than 100 µM each time.
As to `COC1(OC)CCc2c(sc3ncnc(Nc4cccc(Br)c4)c23)C1`, the TGI is greater than 100 µM in the assay with HCT-116 colon; greater than 100 µM in the assay with OVCAR-8 ovarian; greater than 100 µM in the assay with UACC-62 melanoma; 41.5 µM with MOLT-4 leukemia; greater than 100 µM in the assay with IGROV1 ovarian; greater than 100 µM in the assay on SK-OV-3 ovarian. Besides, the TGI in the assay with NCI-H460 lung, in the assay with PC-3 prostate, with SN12C renal, in the assay on MDA-N, with 786-0 renal and in the assay on CAKI-1 renal was greater than 100 µM throughout. The TGI in the assay with MDA-MB-231 breast was greater than 100 µM; in the assay on OVCAR-5 ovarian, 51.4 µM; in the assay on OVCAR-4 ovarian it was greater than 100 µM.
For the compound `N#Cc1c(NC(=O)C(F)(F)F)sc2c3c(=O)c4ccccc4c(=O)c=3oc3ccccc3c12`, the TGI was 29.1 µM in the assay with HCT-116 colon; greater than 56 µM with OVCAR-8 ovarian; 26 µM with UACC-62 melanoma; 34.3 µM in the assay on MOLT-4 leukemia; 48.7 µM with IGROV1 ovarian; 77.2 µM in the assay on SK-OV-3 ovarian. Also, the TGI in the assay with NCI-H460 lung is 36.5 µM; in the assay on PC-3 prostate, greater than 62.2 µM; with SN12C renal, 55.3 µM; with MDA-N, 36.5 µM; in the assay with 786-0 renal, 72.2 µM; in the assay with CAKI-1 renal, 31.4 µM. For the same compound, the TGI was found to be 67 µM in the assay on MDA-MB-231 breast, 63.3 µM with OVCAR-5 ovarian and 31.2 µM with OVCAR-4 ovarian.
On to `Cc1cccc2sc(NC(=O)NS(=O)(=O)n3cnc4ccccc43)nc12`, for which the TGI in the assay with HCT-116 colon is 99.3 µM; in the assay on OVCAR-8 ovarian, 67.1 µM; in the assay on UACC-62 melanoma, 34.3 µM; in the assay on MOLT-4 leukemia, 88 µM; in the assay on IGROV1 ovarian it was 51.1 µM; in the assay with SK-OV-3 ovarian, greater than 100 µM. The TGI in the assay with NCI-H460 lung is greater than 100 µM; in the assay with PC-3 prostate, 95.3 µM; in the assay on SN12C renal, greater than 100 µM; in the assay with MDA-N, greater than 100 µM; in the assay with 786-0 renal, greater than 100 µM; in the assay on CAKI-1 renal, greater than 100 µM. Besides, the figures for the TGI in the assay with MDA-MB-231 breast, in the assay with OVCAR-5 ovarian and in the assay with OVCAR-4 ovarian were 93.3 µM, 89.4 µM and greater than 100 µM, respectively.
Take `O=c1cc(Nc2cccc(O)c2)[nH]c(=O)[nH]1`: the TGI in the assay with HCT-116 colon, with OVCAR-8 ovarian, in the assay on UACC-62 melanoma, with MOLT-4 leukemia, with IGROV1 ovarian and in the assay on SK-OV-3 ovarian was greater than 100 µM throughout. Moreover, the TGI in the assay on NCI-H460 lung, with PC-3 prostate, with SN12C renal, with MDA-N, in the assay on 786-0 renal and with CAKI-1 renal was greater than 100 µM each time. The TGI with MDA-MB-231 breast, in the assay with OVCAR-5 ovarian and in the assay with OVCAR-4 ovarian was greater than 100 µM in each case.
Take `CCN(CC)CCNc1ccc([N+](=O)[O-])c2nc3ccc(OC)cc3c(NCCN(CC)CC)c12`: the TGI in the assay on HCT-116 colon was 2.13 µM; in the assay on OVCAR-8 ovarian, greater than 4.16 µM; with UACC-62 melanoma, greater than 10 µM; in the assay with MOLT-4 leukemia it was greater than 3.13 µM; in the assay on IGROV1 ovarian, 7.15 µM; with SK-OV-3 ovarian, greater than 10 µM. Moreover, the TGI in the assay with NCI-H460 lung stood at 1.41 µM; in the assay on PC-3 prostate, 2.1 µM; with SN12C renal it was 3.69 µM; with MDA-N it was 2.39 µM; in the assay with 786-0 renal, 1.56 µM; with CAKI-1 renal, 8.6 µM. In addition, the TGI in the assay with MDA-MB-231 breast was found to be 2.45 µM; with OVCAR-5 ovarian it was 4.79 µM; in the assay with OVCAR-4 ovarian, 3.1 µM.
With `COc1ccc(OC)c2sc(N3C(=O)/C(=C/c4cccc(Oc5ccccc5)c4)N=C3c3ccccc3)nc12`, the TGI in the assay on HCT-116 colon, with OVCAR-8 ovarian, with UACC-62 melanoma, with MOLT-4 leukemia, in the assay on IGROV1 ovarian and in the assay on SK-OV-3 ovarian was greater than 100 µM each time. Besides, the TGI in the assay with NCI-H460 lung, in the assay with PC-3 prostate, in the assay with SN12C renal, in the assay on MDA-N, with 786-0 renal and with CAKI-1 renal was greater than 100 µM in each case. Also, the TGI in the assay on MDA-MB-231 breast, with OVCAR-5 ovarian and in the assay with OVCAR-4 ovarian was greater than 100 µM throughout.
For `COc1ccc(/C(Nc2ccccc2)=C(\CCl)c2ccccc2)cc1OC`, the TGI in the assay with HCT-116 colon was 48.9 µM; with OVCAR-8 ovarian it was greater than 100 µM; in the assay on UACC-62 melanoma, greater than 100 µM; with MOLT-4 leukemia, greater than 100 µM; in the assay with IGROV1 ovarian it was greater than 100 µM; in the assay with SK-OV-3 ovarian, greater than 100 µM. For the same compound, the TGI in the assay on NCI-H460 lung, in the assay on PC-3 prostate, with SN12C renal, in the assay with MDA-N, in the assay on 786-0 renal and with CAKI-1 renal was greater than 100 µM throughout. Besides, the TGI in the assay with MDA-MB-231 breast, in the assay on OVCAR-5 ovarian and in the assay on OVCAR-4 ovarian was greater than 100 µM each time.
Turning to `Cc1cc(C)c(-c2no/c(=N\S(=O)(=O)c3ccc(Cl)cc3)o2)c(C)c1`, the TGI in the assay on HCT-116 colon, in the assay on OVCAR-8 ovarian, in the assay with UACC-62 melanoma, in the assay with MOLT-4 leukemia, in the assay with IGROV1 ovarian and in the assay on SK-OV-3 ovarian was greater than 100 µM each time. Moreover, the TGI with NCI-H460 lung, with PC-3 prostate, in the assay on SN12C renal, in the assay with MDA-N, with 786-0 renal and in the assay on CAKI-1 renal was greater than 100 µM in each case. The TGI with MDA-MB-231 breast, in the assay with OVCAR-5 ovarian and in the assay with OVCAR-4 ovarian was greater than 100 µM throughout.
For `CC(N)(CC(O)(C(F)(F)Cl)C(F)(F)Cl)C(=O)O` (centres undefined), the TGI in the assay on HCT-116 colon, in the assay with OVCAR-8 ovarian, with UACC-62 melanoma, with MOLT-4 leukemia, in the assay on IGROV1 ovarian and in the assay on SK-OV-3 ovarian was greater than 10 µM in each case. Also, the TGI in the assay with NCI-H460 lung, with PC-3 prostate, in the assay with SN12C renal, in the assay on MDA-N, in the assay on 786-0 renal and in the assay on CAKI-1 renal was greater than 10 µM in each case. The TGI with MDA-MB-231 breast, with OVCAR-5 ovarian and in the assay with OVCAR-4 ovarian was greater than 10 µM throughout.

(Values after PubChem BioAssay (NCI).)
